pIC50: −log10 of the molar value.
molecular target: T1, Prostaglandin G/H synthase 1 (Ovis aries, UniProt P05979); assay: In vitro COX Inhibition Assay
T1 sequence (P05979 whole entry): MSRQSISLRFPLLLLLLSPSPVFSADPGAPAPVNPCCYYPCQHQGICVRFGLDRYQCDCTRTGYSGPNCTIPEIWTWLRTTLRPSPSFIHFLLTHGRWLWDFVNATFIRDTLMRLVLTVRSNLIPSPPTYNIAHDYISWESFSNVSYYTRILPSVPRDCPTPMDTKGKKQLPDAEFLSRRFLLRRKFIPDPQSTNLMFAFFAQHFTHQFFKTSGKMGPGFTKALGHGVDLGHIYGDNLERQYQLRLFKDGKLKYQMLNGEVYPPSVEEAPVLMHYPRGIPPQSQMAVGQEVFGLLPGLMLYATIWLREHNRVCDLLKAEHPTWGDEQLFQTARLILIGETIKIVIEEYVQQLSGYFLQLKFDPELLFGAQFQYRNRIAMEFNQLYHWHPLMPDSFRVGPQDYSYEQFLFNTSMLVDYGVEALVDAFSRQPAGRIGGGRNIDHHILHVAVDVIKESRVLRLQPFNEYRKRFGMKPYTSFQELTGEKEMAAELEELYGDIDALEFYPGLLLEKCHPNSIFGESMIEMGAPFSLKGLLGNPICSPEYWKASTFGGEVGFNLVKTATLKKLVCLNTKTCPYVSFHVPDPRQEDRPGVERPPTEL
Method: The peroxidase activity is assayed colorimetrically by monitoring the appearance of oxidised N,N,N',N'-tetramethyl-p-phenylenediamine (TMPD) at 590 nm.

Compound	pIC50
O=c1nc(-c2ccccc2)c(-c2ccccc2)nn1Cc1nnc(Nc2ccc(Cl)cc2)s1 [2-((5-(4-Chlorophenylamino)-1,3,4-thiadiazol-2-yl)methyl)-5,6-diphenyl-1,2,4-triazin-3(2H)-one (4d)]	4.21
O=c1nc(-c2ccccc2)c(-c2ccccc2)nn1Cc1nnc(Nc2ccc([N+](=O)[O-])cc2)o1 [2-((5-(4-Nitrophenylamino)-1,3,4-oxadiazol-2-yl)methyl)-5,6-diphenyl-1,2,4-triazin-3(2H)-one (3e)]	4.20
O=c1nc(-c2ccccc2)c(-c2ccccc2)nn1Cc1nnc(Nc2ccc([N+](=O)[O-])cc2)s1 [2-((5-(4-Nitrophenylamino)-1,3,4-thiadiazol-2-yl)methyl)-5,6-diphenyl-1,2,4-triazin-3(2H)-one (4e)]	4.20
O=c1nc(-c2ccccc2)c(-c2ccccc2)nn1Cc1nnc(Nc2ccc(Cl)cc2)o1 [2-((5-(4-Chlorophenylamino)-1,3,4-oxadiazol-2-yl)methyl)-5,6-diphenyl-1,2,4-triazin-3(2H)-one (3d)]	4.19

More lines, in order of rising pIC50, values ahead:

pIC50	Compound
4.22	COc1ccc(Nc2nnc(Cn3nc(-c4ccccc4)c(-c4ccccc4)nc3=O)o2)cc1 [2-((5-(4-Methoxyphenylamino)-1,3,4-oxadiazol-2-yl)methyl)-5,6-diphenyl-1,2,4-triazin-3(2H)-one (3c)]
4.22	COc1ccc(Nc2nnc(Cn3nc(-c4ccccc4)c(-c4ccccc4)nc3=O)s2)cc1 [2-((5-(4-Methoxyphenylamino)-1,3,4-thiadiazol-2-yl)methyl)-5,6-diphenyl-1,2,4-triazin-3(2H)-one (4c)]

Reference: BindingDB's records for doi:10.1016/j.bioorg.2016.10.003 (Indian Institute of Technology (Banaras Hindu University), 2016)
